The values that follow come from BindingDB's records for PubMed 8100350 (University of Pennsylvania, 1993).

Assay [1] deals with Somatostatin receptor type 3 (Mus musculus, UniProt P30935).
The target of assay [2] is Somatostatin receptor type 2 (Mus musculus, UniProt P30875).
The target of assay [3] is Somatostatin receptor type 1 (Homo sapiens, UniProt P30872).

Where a SMILES comes first, the peptide text is derived from it. Bridges are numbered along the chain shown (N, C = ends). [ ]: non-standard residue; d: D form. The star is where a group is joined. NH(1-naphthylmethyl) = c1ccc2c(CN*)cccc2c1; Phe(4-Cl) = N[C@@H](Cc1ccc(Cl)cc1)C(=O)O; dPhe(4-Cl) = N[C@H](Cc1ccc(Cl)cc1)C(=O)O; 2Nal = N[C@@H](Cc1ccc2ccccc2c1)C(=O)O; d2Nal = N[C@H](Cc1ccc2ccccc2c1)C(=O)O; 1Nal = N[CH](Cc1cccc2ccccc12)C(=O)O; dNMeF = CN[C@H](Cc1ccccc1)C(=O)O; Thr(ol) = C[CH](O)[CH](N)CO; dNMeA = CN[C@H](C)C(=O)O; Aoc = NCCCCCCCC(=O)O; Ahp = NCCCCCCC(=O)O; Ahx = NCCCCCC(=O)O; Bn = c1ccc(C*)cc1

Sequence of Somatostatin receptor type 1 (P30872 whole entry): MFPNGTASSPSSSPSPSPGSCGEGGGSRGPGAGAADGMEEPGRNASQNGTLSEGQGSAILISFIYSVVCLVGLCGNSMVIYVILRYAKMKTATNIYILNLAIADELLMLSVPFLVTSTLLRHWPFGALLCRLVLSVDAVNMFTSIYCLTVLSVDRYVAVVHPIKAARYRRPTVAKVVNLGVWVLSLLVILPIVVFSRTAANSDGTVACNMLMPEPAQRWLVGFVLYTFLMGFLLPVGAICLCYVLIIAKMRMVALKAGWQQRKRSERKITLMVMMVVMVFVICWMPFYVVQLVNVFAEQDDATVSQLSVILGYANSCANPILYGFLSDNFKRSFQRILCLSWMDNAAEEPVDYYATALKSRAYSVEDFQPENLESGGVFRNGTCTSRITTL
Sequence of Somatostatin receptor type 2 (P30875 whole entry): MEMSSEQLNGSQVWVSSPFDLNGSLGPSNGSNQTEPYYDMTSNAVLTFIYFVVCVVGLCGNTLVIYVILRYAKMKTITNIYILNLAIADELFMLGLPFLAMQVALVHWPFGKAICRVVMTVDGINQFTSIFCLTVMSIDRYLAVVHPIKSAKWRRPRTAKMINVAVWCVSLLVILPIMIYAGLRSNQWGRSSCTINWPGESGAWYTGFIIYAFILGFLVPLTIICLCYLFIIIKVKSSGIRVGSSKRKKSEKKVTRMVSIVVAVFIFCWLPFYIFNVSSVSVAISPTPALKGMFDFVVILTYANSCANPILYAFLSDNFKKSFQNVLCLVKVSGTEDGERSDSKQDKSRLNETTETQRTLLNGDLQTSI
Sequence of Somatostatin receptor type 3 (P30935 whole entry): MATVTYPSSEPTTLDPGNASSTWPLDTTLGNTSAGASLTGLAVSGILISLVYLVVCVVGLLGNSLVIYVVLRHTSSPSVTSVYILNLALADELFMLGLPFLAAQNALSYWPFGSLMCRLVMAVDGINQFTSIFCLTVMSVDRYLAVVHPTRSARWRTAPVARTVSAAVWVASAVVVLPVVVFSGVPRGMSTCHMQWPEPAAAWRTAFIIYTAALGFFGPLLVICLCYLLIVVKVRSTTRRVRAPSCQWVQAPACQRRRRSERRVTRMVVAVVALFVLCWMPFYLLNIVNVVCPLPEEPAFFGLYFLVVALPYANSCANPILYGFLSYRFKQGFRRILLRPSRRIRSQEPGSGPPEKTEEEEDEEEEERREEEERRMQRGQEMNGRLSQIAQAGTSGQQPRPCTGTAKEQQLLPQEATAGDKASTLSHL

Regarding `C[C@@H](O)[C@H](NC(=O)[C@H](Cc1ccccc1)NC(=O)[C@@H](NC(=O)[C@H](CCCCN)NC(=O)[C@@H](Cc1c[nH]c2ccccc12)NC(=O)[C@H](Cc1ccccc1)NC(=O)[C@H](Cc1ccccc1)NC(=O)[C@H](N)Cc1ccccc1)[C@@H](C)O)C(N)=O` [CAS_133073-82-2] (H-[dF]FF[dW]KTFT-NH2), the inhibition constant (Ki) was determined as 0.42 nM in assay [1], 32 nM in assay [2] and 23 nM in assay [3].

`C[C@@H](O)[C@H](NC(=O)[C@H](Cc1ccccc1)NC(=O)[C@@H](NC(=O)[C@H](CCCCN)NC(=O)[C@@H](Cc1c[nH]c2ccccc12)NC(=O)[C@H](Cc1ccc(O)cc1)NC(=O)[C@H](Cc1ccc(Cl)cc1)NC(=O)[C@H](N)Cc1ccc2ccccc2c1)[C@@H](C)O)C(N)=O` [CAS_150155-63-8] (H-[d2Nal][Phe(4-Cl)]Y[dW]KTFT-NH2): the Ki is 11 nM in assay [1], 40 nM in assay [2] and 1000 nM in assay [3].

Consider `CC(C)[C@H](NC(=O)[C@H](CCCCN)NC(=O)[C@@H](Cc1c[nH]c2ccccc12)NC(=O)[C@H](Cc1ccc(O)cc1)NC(=O)[C@H](C)NC(=O)[C@H](N)Cc1ccc(Cl)cc1)C(=O)N[C@@H](C)C(=O)N[C@@H](Cc1ccc2ccccc2c1)C(N)=O` [CAS_150155-67-2] (H-[dPhe(4-Cl)]AY[dW]KVA[2Nal]-NH2), for which the Ki in assay [1] came to 143 nM; in assay [2], 22 nM; in assay [3] it was 1000 nM.

For `CC(C)[C@H](NC(=O)[C@H](CCCCN)NC(=O)[C@@H](Cc1c[nH]c2ccccc12)NC(=O)[C@H](Cc1ccc(O)cc1)NC(=O)[C@H](C)NC(=O)[C@H](N)Cc1ccc2ccccc2c1)C(=O)N[C@@H](C)C(=O)N[C@H](C(N)=O)[C@@H](C)O` [D-Nal-Ala-Tyr-D-Trp-Lys-Val-Ala-Thr-NH2] (H-[d2Nal]AY[dW]KVAT-NH2), the Ki in assay [1] was found to be 10 nM; in assay [2], 86 nM; in assay [3], 1000 nM.

Turning to `C[C@@H](O)[C@H](NC(=O)[C@@H]1CSSC[C@H](NC(=O)[C@H](N)Cc2ccc3ccccc3c2)C(=O)N[C@@H](Cc2ccc(O)cc2)C(=O)N[C@H](Cc2c[nH]c3ccccc23)C(=O)N[C@@H](CCCCN)C(=O)N[C@@H]([C@@H](C)O)C(=O)N1)C(N)=O` [D-Nal-c[Cys-Tyr-D-Trp-Lys-Thr-Cys]-Thr-NH2], the Ki was 7.1 nM in assay [1], 0.008 nM in assay [2] and 1000 nM in assay [3].

Turning to `CC(C)[C@H](NC(=O)[C@H](CCCCN)NC(=O)[C@@H](Cc1c[nH]c2ccccc12)NC(=O)[C@H](Cc1ccc(O)cc1)NC(=O)[C@H](C)NC(=O)[C@H](N)Cc1ccccc1)C(=O)N[C@@H](C)C(=O)N[C@H](Cc1ccc2ccccc2c1)C(N)=O` [D-Phe-AIa-Tyr-D-Trp-Lys-Val-Ala-D-Nal-NH2] (H-[dF]AY[dW]KVA[d2Nal]-NH2), the Ki in assay [1] amounted to 65 nM; in assay [2], 60 nM; in assay [3] it was 146 nM.

On to `CC[C@@H]1NC(=O)[C@H](CCCCN)NC(=O)[C@@H](Cc2c[nH]c3ccccc23)NC(=O)[C@H](Cc2ccc(O)cc2)NC(=O)[C@@H](NC(=O)[C@H](N)Cc2ccccc2)CSSC[C@@H](C(=O)N[C@H](C(N)=O)[C@@H](C)O)NC1=O` [D-Phe-L-Cys(1)-L-Tyr-D-Trp-L-Lys-L-Abu-L-Cys(1)-L-Thr-NH2], for which the values for the Ki in assay [1], in assay [2] and in assay [3] were 13.5 nM, 0.001 nM and 1000 nM, respectively.

In the case of `CC(C)[C@H](NC(=O)[C@H](CCCCN)NC(=O)[C@@H](Cc1c[nH]c2ccccc12)NC(=O)[C@H](Cc1ccc(O)cc1)NC(=O)[C@H](Cc1ccccc1)NC(=O)[C@H](N)Cc1ccccc1)C(=O)N[C@@H](Cc1ccccc1)C(=O)N[C@H](Cc1ccccc1)C(N)=O` [D-Phe-Phe-Tyr-D-Trp-Lys-Val-Phe-D-Phe-NH2] (H-[dF]FY[dW]KVF[dF]-NH2), the inhibition constant (Ki) is 38 nM in assay [1], > 10000 nM in assay [2] and 1000 nM in assay [3].

Consider `CC(C)C1NC(=O)C(CCCCN)NC(=O)C(Cc2c[nH]c3ccccc23)NC(=O)C(Cc2ccc(O)cc2)NC(=O)C(NC(=O)C(N)Cc2cccc3ccccc23)CSSCC(C(=O)NC(CO)C(C)O)NC1=O` (stereo not drawn) [DC23-60] (H-[1Nal]CYWKVC[Thr(ol)]; disulfide 2-7; configuration not given here), for which the inhibition constant (Ki) in assay [1] stood at 166 nM; in assay [2], 0.93 nM; in assay [3], 241 nM.

As for `CC(O)C1NC(=O)C(CCCCN)NC(=O)C(Cc2c[nH]c3ccccc23)NC(=O)C(Cc2ccccc2)NC(=O)C(NC(=O)C(N)Cc2ccccc2)CSSCC(C(=O)NCc2cccc3ccccc23)NC1=O` (stereo not drawn) [EC5-21] (H-FCFWKTC-{NH(1-naphthylmethyl)}; disulfide 2-7; configuration not given here), the inhibition constant (Ki) in assay [1] is 20 nM; in assay [2], 4.8 nM; in assay [3], 382 nM.

`C[C@@H](O)[C@@H]1NC(=O)[C@H](CCCCN)NC(=O)[C@@H](Cc2c[nH]c3ccccc23)NC(=O)[C@H](Cc2c[nH]c3ccccc23)NC(=O)[C@H](Cc2ccccc2)NC(=O)CCCCCCNC(=O)[C@H](Cc2ccccc2)NC1=O` [L-362855] (cyclo([Ahp]FW[dW]KTF)): the inhibition constant (Ki) in assay [1] was determined as 30 nM; in assay [2] it was 29 nM; in assay [3], 1000 nM.

In the case of `C[C@@H](O)[C@@H]1NC(=O)[C@H](CCCCN)NC(=O)[C@@H](Cc2c[nH]c3ccccc23)NC(=O)[C@H](Cc2ccc(Cl)cc2)NC(=O)[C@H](Cc2ccccc2)NC(=O)CCCCCCNC(=O)[C@H](Cc2ccccc2)NC1=O` [L-362862] (cyclo([Ahp]F[Phe(4-Cl)][dW]KTF)), the Ki came out at 24 nM in assay [1], 8.3 nM in assay [2] and 580 nM in assay [3].

As for `CC(C)[C@H](NC(=O)[C@H](CCCCN)NC(=O)[C@@H](Cc1c[nH]c2ccccc12)NC(=O)[C@H](Cc1ccc(O)cc1)NC(=O)[C@H](C)NC(=O)[C@H](N)Cc1ccccc1)C(=O)N[C@@H](C)C(=O)N[C@@H](Cc1ccc2ccccc2c1)C(N)=O` [L-Alaninamide,D-phenylalanyl-L-alanyl-L-tyrosyl-D-tryptophyl-L-lysyl-L-valyl-L-alanyl-3-(2-naphthalenyl)-(9CI)] (H-[dF]AY[dW]KVA[2Nal]-NH2), the Ki in assay [1] came out at 152 nM; in assay [2], 6.1 nM; in assay [3], 1000 nM.

Turning to `C[C@H](O)[C@H]1NC(=O)[C@H](CCCCN)NC(=O)[C@@H](Cc2c[nH]c3ccccc23)NC(=O)[C@@H](Cc2ccccc2)NC(=O)[C@@H](C)N(C)C(=O)[C@@H](Cc2ccccc2)N(C)C1=O` [N-Methylcyclo(D-Ala-D-Phe-D-Trp-L-Lys-D-Thr-N-methyl-D-Phe-)] (cyclo(K[dT][dNMeF][dNMeA][dF][dW])), the Ki in assay [1] was found to be 18.9 nM; in assay [2], 26 nM; in assay [3], 1000 nM.

Turning to `NCCCCC1NC(=O)C(Cc2c[nH]c3ccccc23)NC(=O)C(Cc2ccc(O)cc2)NC(=O)C(NC(=O)C(N)Cc2ccccc2)CSSCC(C(=O)NCc2cccc3ccccc23)NC(=O)C(CO)NC1=O` (stereo not drawn) [NC4-28B] (H-FCYWKSC-{NH(1-naphthylmethyl)}; disulfide 2-7; configuration not given here), the inhibition constant (Ki) in assay [1] came to 112 nM; in assay [2], 0.002 nM; in assay [3], 1000 nM.

For the molecule `NCCCC[C@@H]1NC(=O)[C@@H](Cc2c[nH]c3ccccc23)NC(=O)[C@H](Cc2ccccc2)NC(=O)CCCCCCNC(=O)[C@H](COCc2ccccc2)NC1=O` [c[Aha-Phe-D-Trp-Lys-Ser(Bzl)]] (cyclo([Ahp]F[dW]KS(Bn))), the Ki was found to be 214 nM in assay [1], 1000 nM in assay [2] and 80 nM in assay [3].

For `C[C@@H](OCc1ccccc1)[C@@H]1NC(=O)[C@H](CCCCN)NC(=O)[C@@H](Cc2c[nH]c3ccccc23)NC(=O)[C@H](Cc2ccccc2)NC(=O)CCCCCCNC1=O` [c[Aha-Phe-D-Trp-Lys-Thr(Bzl)]] (cyclo([Ahp]F[dW]KT(Bn))), the inhibitory constant (Ki) was found to be 107 nM in assay [1], 1000 nM in assay [2] and 141 nM in assay [3].

`C[C@@H](O)[C@@H]1NC(=O)[C@H](CCCCN)NC(=O)[C@@H](Cc2c[nH]c3ccccc23)NC(=O)[C@H](Cc2ccccc2)NC(=O)CCCCCCNC1=O` [c[Aha-Phe-D-Trp-Lys-Thr]] (cyclo([Ahp]F[dW]KT)): the inhibition constant (Ki) in assay [1], in assay [2] and in assay [3] was 1000 nM throughout.

As for `C[C@@H](OCc1ccccc1)[C@@H]1NC(=O)[C@H](CCCCN)NC(=O)[C@@H](Cc2c[nH]c3ccccc23)NC(=O)[C@H](Cc2ccccc2)NC(=O)CCCCCNC1=O` [c[Ahx-Phe-D-Trp-Lys-Thr(Bzl)]] (cyclo([Ahx]F[dW]KT(Bn))), the inhibition constant Ki in assay [1] worked out at 73 nM; in assay [2], 1000 nM; in assay [3], 183 nM.

Consider `C[C@@H](OCc1ccccc1)[C@@H]1NC(=O)[C@H](CCCCN)NC(=O)[C@@H](Cc2c[nH]c3ccccc23)NC(=O)[C@H](Cc2ccccc2)NC(=O)CCCCCCCNC1=O` [c[Aoc-Phe-D-Trp-Lys-Thr(Bzl)]] (cyclo([Aoc]F[dW]KT(Bn))), for which the Ki in assay [1] came out at 101 nM; in assay [2], 1000 nM; in assay [3], 700 nM.

On to `C[C@@H]1NC(=O)[C@@H]2CCCN2C(=O)[C@H](Cc2ccccc2)NC(=O)[C@H]([C@@H](C)O)NC(=O)[C@H](CCCCN)NC(=O)[C@@H](Cc2c[nH]c3ccccc23)NC1=O` [cyclo(Pro-Ala-Trp-Lys-Thr-Phe)] (cyclo(A[dW]KTFP)), for which the Ki in assay [1] was found to be 244 nM; in assay [2], 356 nM; in assay [3], 1000 nM.

What is called Ki is a measure of affinity in units of concentration, obtained from inhibition or displacement. Read a high Ki as weaker binding.
